{"source": "patent US11767316B2", "about": "“Non-fused thiophene derivatives and their uses” (ENYO PHARMA, priority 2018, dated 2023)", "target": "T1, CISD3 Gene Product (Miner2) (Homo sapiens, UniProt P0C7P0)", "T1 sequence (P0C7P0 15-127)": "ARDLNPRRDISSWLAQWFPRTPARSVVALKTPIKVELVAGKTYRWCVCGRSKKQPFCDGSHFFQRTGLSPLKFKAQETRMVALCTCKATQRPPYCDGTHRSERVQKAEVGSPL", "assay": "Stability of Fe-S cluster binding of purified NEET protein (absorbance 458 nm), Miner2", "format": "biochemical", "protocol": "The modulator effect on the NEET proteins encoded by human CISD1, CISD2, and CISD3 genes by the compounds of the invention has been tested and is reported below. Particularly, the biochemical function of the NEET proteins is measured by the stability of Fe—S cluster binding of the purified NEET proteins.\nThe Fe—S cluster binding capacity of NEET proteins is known to be coordinated by four amino-acids in a stretch of 16 (three Cysteine and one Histidine). As the lability of the Fe—S cluster of NEET proteins is sensitive to the environment, cluster stability measurements are one of the measures of interactions of NEET proteins with small molecules and compounds. NEET protein/2Fe-2S cluster stability can be assessed by monitoring the decay in absorbance of its characteristic 458-nm peak (characteristic of the oxidized 2Fe-2S cluster) over time. Each NEET protein (mitoNEET, NAF-1 and Miner 2) was tested for its Fe—S binding in the absence or presence of a compound according to the invention (see table 3 below). […]\nAt pH 6, all the three NEET proteins (mitoNEET, NAF-1 and Miner 2) have a characteristic rate of loss of the bound Fe—S cluster that can be measured by the decrease of absorbance at wavelength 458 nm over time, using a spectrophotometer. […]\nA reaction mix containing DMSO diluted in the Bis-Tris Buffer with or without a compound of the invention was prepared. […] The absorbance at wavelength 458 nm was taken at 5 minutes intervals at 37° C. with a spectrofluorimeter. […]\nIn addition to time monitoring, residual bound Fe—S cluster to NEET protein was measured at the final point of the spectrometry assay for each Test sample and compared to the Control sample data (in parenthesis table 3). This residual binding is measured by the differential percentage between the absorbance 458 nm at time zero and the absorbance 458 nm at the end of the experiment (i.e. respectively 500 or 180 minutes as described hereabove), showing the percentage of NEET protein still able to bind a Fe—S cluster. […]", "data": [{"smiles": "O=C(Nc1scc(C2CCc3ccccc3C2)c1C(=O)O)c1ccccc1", "note": "(stereo not drawn) [#16]", "values": [{"measurement": "Residual cluster bound at end of experiment (Percentage Absorbance 458 nm at time zero)", "setting": "CISD3 Gene Product, end of experiment 180 minutes, compound 60 μM, pH 6, vehicle control 11%", "result": "11% (11%)"}, {"measurement": "Time (in minutes) to achieve 50% loss of bound cluster (Absorbance 458 nm)", "setting": "Miner2 20 μM, compound 60 μM, pH 6, 37° C., vehicle control 60", "result": "35 (60) minutes"}, {"measurement": "Stabiliser or destabiliser of NEET protein/Fe-S cluster binding", "setting": "Miner2, destabiliser = time to 50% cluster loss decreased by more than 25% vs control", "result": "destabilisers"}]}]}
